In patent US8278075B2, “L-cysteine-producing bacterium and a method for producing L-cysteine” (Ajinomoto Co., Inc., priority 2008, dated 2012):

What was measured:
[1] = tested on: tolC-deficient JW5503 strain (BW25113ΔtolC); assay: Cross streak method, growth inhibition (antibacterial) width; type: cell-based, Escherichia coli; conditions: L agar, overnight at 30° C.
Method: (§1) Influence of a tolC gene deficiency on N-acetylserine (NAS) and O-acetylserine (OAS) sensitivity was investigated in a strain which is deficient in a part of or the entire tolC gene by the cross streak method. In order to compare growth inhibition by NAS (2 M), OAS (2 M), L-cysteine (2 M) and L-serine (1 M), the tolC-deficient JW5503 strain, and the wild-type BW25113 strain used as a control, were cultured overnight in the L liquid medium, and each culture medium was streaked on the L agar medium with a platinum loop. A strip-shaped filter paper onto which each of the aforementioned reagents was dropped, was placed on each of the strains in a direction perpendicular to the streaking direction, and the strains were cultured overnight at 30° C. After the culture, lengths of the filter paper on which growth of the bacteria was inhibited (antibacterial widths) were measured, and the antibacterial activities of the regents on both the strains were compared.

wild-type BW25113 strain = assay: as above; type: cell-based, Escherichia coli; conditions: L agar, overnight at 30° C.
Method: as §1

[2] = tested on: tolC gene-deficient strain JW5503/pCA24; assay: Growth test of serially diluted cell suspensions spotted on L agar medium containing cysteine; type: cell-based, Escherichia coli; conditions: L agar with 10, 15, 20 mM cysteine, 37° C. overnight; FIG. 1
From the text: Since a strain which is deficient in a part of or the entire tolC gene was obtained by the screening of the Keio Collection, growth of the gene-deficient strain was observed on the agar medium containing cysteine of different concentrations in order to analyze the sensitivity of that strain to cysteine in more detail. The strain which is deficient in a part of or the entire tolC gene used here was the JW5503 strain (Keio collection), and the parent strain thereof was the BW25113 strain (Andreas Haldimann, A. and Wanner, B. L., J. Bacteriol., 2001 November; 183 (21):6384-6393). The plasmid carrying the tolC gene for a complementation experiment was pTolC (ASKA clone, Kitagawa, M, et al., 2005; DNA Res., 12:291-299), and the vector used as the base thereof was pCA24 (vector for ASKA clone, Kitagawa, M, et al., 2005, DNA Res., 12:291-299).
The bacteria containing each of the plasmids were each inoculated into 5 ml of L medium (10 g/L of Bacto trypton, 5 g/L of Bacto yeast extract, 5 g/L of NaCl), and cultured overnight at 37° C. […]

wild-type strains = assay: Growth on LB agar media containing cysteine (Keio collection screening); type: cell-based, E. coli BW25113; conditions: overnight at 37° C.
Method: The 3,985 clones of the Keio collection were cultured at 37° C. for 15 hours in 0.5 ml of LB liquid medium. This culture medium was stamped on LB agar media containing cysteine at different concentrations (0, 15, 20, 25 mM), and culture was performed overnight at 37° C. Clones that were sensitive to cysteine at a concentration not higher than the growth inhibition concentration of cysteine for wild-type strains (20 mM) were visually selected. […] A strain which is deficient in a part of or the entire tolC gene was obtained as a clone showing particularly strong and distinctive cysteine sensitivity among the above candidates. TolC is an example of a protein called a porin, which localizes in the outer membrane and forms a channel for substance transportation via the outer membrane. Although the presence of many other porins was known for E. coli, TolC was the only porin selected by this screening, among the several candidates considered showing strong cysteine sensitivity.

[3] = reagent 1 M on filter paper strip
[4] = reagent 2 M on filter paper strip

| Compound | Growth inhibition width [1, 3] | Growth inhibition width (wild-type BW25113 strain; [3]) | Growth inhibition width [1, 4] | Growth inhibition width (wild-type BW25113 strain; [4]) | cysteine sensitivity of growth compared with the control strain BW25113/pCA24 [2] | growth inhibition concentration of cysteine for wild-type strains (wild-type strains) |
| --- | --- | --- | --- | --- | --- | --- |
| N[C@@H](CO)C(=O)O [L-Serine] | 0 mm | 0 mm |  |  |  |  |
| CC(=O)N[C@@H](CO)C(=O)O [N-Acetylserine] |  |  | 10 mm | <2 mm |  |  |
| CC(=O)OC[C@H](N)C(=O)O [O-Acetylserine] |  |  | 4 mm | <1 mm |  |  |
| N[C@@H](CS)C(=O)O [L-Cysteine] |  |  | 5 mm | <1 mm | marked cysteine sensitivity | 20 mM |
